Source: patent publication US20050130287A1, “Purifying process of soluble proteins of the l.obliqua bristles through prothrombin activation: process for a partial determination of the amino acids sequence of the prothrombin activator; process for determining the prothrombin activation of fraction II, n-terminal and internal fragments sequences” (priority 2002, published 2005)

Target: T1, Lopap (Lonomia obliqua, UniProt Q5ECE3)
T1 construct: from tissue; host or cells: Lonomia obliqua caterpillar bristles
T1 sequence (Q5ECE3 17-201): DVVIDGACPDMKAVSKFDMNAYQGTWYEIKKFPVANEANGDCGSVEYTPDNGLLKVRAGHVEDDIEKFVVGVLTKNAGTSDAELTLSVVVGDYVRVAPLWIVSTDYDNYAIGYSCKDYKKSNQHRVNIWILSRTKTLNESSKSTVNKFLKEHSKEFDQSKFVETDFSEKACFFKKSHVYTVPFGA
Test: Lopap inhibition by PMSF or E-64 (S-2238)
Assay type: biochemical

| Compound | effect on Lopap activity (3,2 mM E-64, Lopap 75 nM) | effect on Lopap activity (10 mM PMSF, Lopap 75 nM) |
| --- | --- | --- |
| CC(C)C[C@H](NC(=O)[C@H]1O[C@@H]1C(=O)O)C(=O)NCCCCN=C(N)N (relative stereo) [E-64, trans-epoxysuccinil-L-leucilamide-(4-guanidine-butane)] | did not affected it |  |
| O=S(=O)(F)Cc1ccccc1 [PMSF, phenylmethylsulphonil fluoride] |  | completely annulled |
